The Biogen ADME set (Fang et al. 2023)
In brackets after ≈: the same amount, converted by molar mass.

Details: for aqueous solubility: pH 6.8

MDR1-MDCK efflux ratio	intrinsic clearance, human liver microsomes	intrinsic clearance, rat liver microsomes	aqueous solubility	fraction unbound, human plasma	fraction unbound, rat plasma	SMILES
1.65	46.1 mL/min/kg	345 mL/min/kg	–	–	–	COc1cc(-c2ccc(Cn3nc(C)cc3C)cn2)cc(OC)c1OC
0.913	–	–	0.22 µg/mL (≈ 0.711 µM)	–	–	N#Cc1cc2c(nc1SCc1cccnc1)CCCCCC2
–	–	–	0.18 µg/mL (≈ 0.529 µM)	–	–	Cc1ccc(NC(=O)c2cc(-c3ccccn3)nc3ccccc23)nc1
–	≤ 4.74 mL/min/kg	≤ 10.7 mL/min/kg	–	–	–	Cc1nc2ccccc2c(C(=O)O)c1C
0.631	≤ 4.74 mL/min/kg	28 mL/min/kg	29.3 µg/mL (≈ 128 µM)	–	–	CCCCNC(=O)c1cccc2ncccc12
18.4	≤ 4.74 mL/min/kg	1140 mL/min/kg	–	–	–	C[C@@H](c1ccccc1)N(C)C(=O)NCCN(C)CCO
–	≤ 4.74 mL/min/kg	≤ 10.7 mL/min/kg	49.6 µg/mL (≈ 198 µM)	–	–	COc1cc2c(c(OC)c1OC)CCNC(=O)C2
72	10.3 mL/min/kg	182 mL/min/kg	30.1 µg/mL (≈ 100 µM)	–	–	CCCCCNC(=N)N/N=C/c1c[nH]c2ccc(OC)cc12
0.685	≤ 4.74 mL/min/kg	≤ 10.7 mL/min/kg	–	–	–	Cc1ccc(CNc2ncnn2C)nc1
0.761	270 mL/min/kg	1280 mL/min/kg	–	–	–	O=C1CC(N2CCCN(c3ccc(C(F)(F)F)cn3)CC2)C(=O)N1c1ccccc1 (stereo not given)
–	≤ 4.74 mL/min/kg	35.1 mL/min/kg	–	–	–	CCCNC(=O)c1ccc(OC2CCN(C)CC2)cc1

More lines, now with the values behind:

SMILES	MDR1-MDCK efflux ratio	intrinsic clearance, human liver microsomes	intrinsic clearance, rat liver microsomes	aqueous solubility	fraction unbound, human plasma	fraction unbound, rat plasma
COc1ccc(-c2nc3cc(C)ccc3cc2CN(C)Cc2nccn2C)cc1	4.84	296 mL/min/kg	2500 mL/min/kg	18 µg/mL (≈ 46.6 µM)	–	–
O=C(NCC1CCC1)c1ccc(-n2ccnc2)nn1	0.616	8.32 mL/min/kg	50.3 mL/min/kg	34.1 µg/mL (≈ 133 µM)	–	–
CCN(CC)C(=O)N1CCC(C(=O)O)CC1	4.41	≤ 4.74 mL/min/kg	≤ 10.7 mL/min/kg	60.2 µg/mL (≈ 264 µM)	–	–
Cc1ccc(OCc2noc(-c3ccsc3)n2)cn1	0.524	56.1 mL/min/kg	204 mL/min/kg	52.7 µg/mL (≈ 193 µM)	–	–
Nc1nncc(-c2ccccc2OC(F)F)n1	0.709	≤ 4.74 mL/min/kg	≤ 10.7 mL/min/kg	38.9 µg/mL (≈ 163 µM)	–	–
COc1ccc(OCC(=O)Nc2cccc(Cl)c2N2CCN(C(C)=O)CC2)cc1	1.09	181 mL/min/kg	3350 mL/min/kg	4.7 µg/mL (≈ 11.2 µM)	0.0502	–
O=C(CCc1ccc(Cl)cc1)N1CCCC(c2n[nH]cc2-c2cccc(F)c2)C1 (stereo not given)	5.67	930 mL/min/kg	3260 mL/min/kg	3.9 µg/mL (≈ 9.47 µM)	–	–
Cn1cc(Nc2nc(N)nc(-c3cccc(-n4ccc5cc(C6CC6)cc(F)c5c4=O)c3CO)n2)cn1	24.3	≤ 4.74 mL/min/kg	37.9 mL/min/kg	–	0.0709	0.0381
NC1CC(NC(=O)c2ccc(-c3cn[nH]c3)cn2)C12CCC2 (stereo not given)	8.96	8.51 mL/min/kg	–	–	0.513	–
CCn1nccc1-c1cc(C)nc(N2CCCC2)n1	0.641	115 mL/min/kg	398 mL/min/kg	–	–	–
O=C(Cn1cc(NCc2cccc(Cl)c2)cn1)N1CCOCC1	4.24	5.9 mL/min/kg	71.9 mL/min/kg	–	–	–
CCC(C)(C)c1ccc(Oc2ccc(NC(=O)CSc3cccc[n+]3[O-])cc2)cc1	2.2	–	–	0.45 µg/mL (≈ 1.06 µM)	–	–
